In brackets after ≈: the same amount, converted by molar mass. Where two headings read alike, the source gives them in different places.
Test system: S. aureus clinical isolates and S. aureus ATCC 29213
Assay: MIC assay according to CLSI criteria, Example 2, S. aureus strains
Type: cell-based, Staphylococcus aureus
Conditions: Staphylococcus aureus, read-out: MIC
Description: Strains were conserved in Luria Bertani (LB) Broth (S. aureus) or Brain Heart Infusion (BHI) (S. pyogenes) supplemented with glycerol 15% (v/v) at −80° C., and reactivated by isolation on LB (S. aureus) or BHI (S. pyogenes) agar plates. Strains were cultivated in Mueller Hinton (MH) Broth-cation adjusted (S. aureus) or BHI (S. pyogenes). All strains were cultivated aerobically (microaerobically for S. pyogenes strains) at 37° C.
Bacterial cultures were stopped in their exponential growth phase and plates were inoculated with the approximate concentration of 5×10^5 cells per well. Plates were incubated at 37° C. for 18 hours (S. aureus) or 24 hours (S. pyogenes).

CC(=O)O[C@H]1C[C@@]2(C)[C@@H](C[C@@H](O)[C@H]3[C@@]4(C)CC[C@@H](O)[C@@H](C)[C@@H]4CC[C@@]32C)/C1=C(\CCC=C(C)C)C(=O)O [Fusidic acid]
MIC (ATCC29213, strain 9-1862936): 0.125 µg/mL (≈ 0.242 µM)
MIC (ATCC29213, strain 9-2625962): 0.25 µg/mL (≈ 0.484 µM)
MIC (ATCC29213, strain 9-2642158): 0.25 µg/mL (≈ 0.484 µM)
MIC (ATCC29213, strain 9-2955245): 0.25 µg/mL (≈ 0.484 µM)
MIC (ATCC29213, strain 9-26422166): 8 µg/mL (≈ 15.5 µM)
MIC (ATCC29213, strain 000040C): 0.25 µg/mL (≈ 0.484 µM)
MIC (ATCC29213, strain 000041C): 0.25 µg/mL (≈ 0.484 µM)
MIC (ATCC29213, strain 000274T): 0.5 µg/mL (≈ 0.968 µM)
MIC (ATCC29213, strain 114660U): 0.25 µg/mL (≈ 0.484 µM)
MIC (ATCC29213, strain 115015T): 0.25 µg/mL (≈ 0.484 µM)
MIC (ATCC29213, strain 115242C): 8 µg/mL (≈ 15.5 µM)
MIC (ATCC29213, strain 115263C): 0.125 µg/mL (≈ 0.242 µM)
MIC (ATCC29213, strain 115268C): 0.25 µg/mL (≈ 0.484 µM)
MIC (ATCC29213, strain 115273C): 0.25 µg/mL (≈ 0.484 µM)
MIC (ATCC29213, strain 115295C): 0.125 µg/mL (≈ 0.242 µM)
MIC (ATCC29213, strain 115303C): 0.25 µg/mL (≈ 0.484 µM)
MIC (ATCC29213, strain 115370U): 0.5 µg/mL (≈ 0.968 µM)
MIC (ATCC29213, strain 115427C): 0.125 µg/mL (≈ 0.242 µM)
MIC (ATCC29213, strain 115445C): 0.25 µg/mL (≈ 0.484 µM)
MIC (ATCC29213, strain 115561C): 0.125 µg/mL (≈ 0.242 µM)
MIC (ATCC29213, strain 115584D): 0.25 µg/mL (≈ 0.484 µM)
MIC (ATCC29213, strain 115628T): 8 µg/mL (≈ 15.5 µM)
MIC (ATCC29213, strain 115690C): 8 µg/mL (≈ 15.5 µM)
MIC (ATCC29213, strain 115691T): 0.25 µg/mL (≈ 0.484 µM)
MIC (ATCC29213, strain 115740E): 0.25 µg/mL (≈ 0.484 µM)
MIC (ATCC29213, strain 115810E): 0.25 µg/mL (≈ 0.484 µM)
MIC (ATCC29213, strain 115903T): 8 µg/mL (≈ 15.5 µM)
MIC (ATCC29213, strain 116122T): 0.125 µg/mL (≈ 0.242 µM)
MIC (ATCC29213, strain ATCC 29213): 0.06 µg/mL (≈ 0.116 µM)
MIC (ATCC29213, strain E5-1029252): 0.25 µg/mL (≈ 0.484 µM)
MIC (ATCC29213, strain E5-1029558): 16 µg/mL (≈ 31 µM)
MIC (ATCC29213, strain E5-1030440): 0.25 µg/mL (≈ 0.484 µM)
MIC (ATCC29213, strain E5-1030469): 0.125 µg/mL (≈ 0.242 µM)
MIC (ATCC29213, strain E5-1030472): 0.25 µg/mL (≈ 0.484 µM)
MIC (ATCC29213, strain E5-1030482): 16 µg/mL (≈ 31 µM)
MIC (ATCC29213, strain E5-1033076 (first line, r202)): 0.25 µg/mL (≈ 0.484 µM)
MIC (ATCC29213, strain E5-1033076 (second line, r203)): 0.25 µg/mL (≈ 0.484 µM)
MIC (ATCC29213, strain E5-1033088): 0.25 µg/mL (≈ 0.484 µM)
MIC (ATCC29213, strain E5-1033091): 0.03 µg/mL (≈ 0.0581 µM)
MIC (ATCC29213, strain E5-1035277): 16 µg/mL (≈ 31 µM)
MIC (ATCC29213, strain E5-1035284): 0.25 µg/mL (≈ 0.484 µM)
MIC (ATCC29213, strain E5-1035775): > 16 µg/mL
MIC (ATCC29213, strain E5-1035779): 0.125 µg/mL (≈ 0.242 µM)
MIC (ATCC29213, strain E5-1037958): 16 µg/mL (≈ 31 µM)
MIC (ATCC29213, strain E5-1037971): 0.25 µg/mL (≈ 0.484 µM)
MIC (ATCC29213, strain E5-1038279): 4 µg/mL (≈ 7.74 µM)
MIC (ATCC29213, strain E5-1038286): 0.25 µg/mL (≈ 0.484 µM)
MIC (ATCC29213, strain E5-1038294): 0.25 µg/mL (≈ 0.484 µM)
MIC (ATCC29213, strain E5-1039684): 16 µg/mL (≈ 31 µM)
MIC (ATCC29213, strain E5-1039697): 0.5 µg/mL (≈ 0.968 µM)
MIC (ATCC29213, strain E5-1041977): 16 µg/mL (≈ 31 µM)
MIC (ATCC29213, strain E5-1041979): 0.25 µg/mL (≈ 0.484 µM)
MIC (ATCC29213, strain E5-1041980): 0.25 µg/mL (≈ 0.484 µM)
MIC (ATCC29213, strain E5-1041987): 16 µg/mL (≈ 31 µM)
MIC (ATCC29213, strain E5-1043184): 16 µg/mL (≈ 31 µM)
MIC (ATCC29213, strain E5-1043668): 1 µg/mL (≈ 1.94 µM)
MIC (ATCC29213, strain E5-1045179): 0.25 µg/mL (≈ 0.484 µM)
MIC (ATCC29213, strain E5-1046019): 0.25 µg/mL (≈ 0.484 µM)
MIC (ATCC29213, strain E5-1046020): 0.25 µg/mL (≈ 0.484 µM)
MIC (ATCC29213, strain E5-1046039): 0.25 µg/mL (≈ 0.484 µM)
MIC (ATCC29213, strain E5-1046070): 0.25 µg/mL (≈ 0.484 µM)
MIC (ATCC29213, strain E5-1046074): 0.125 µg/mL (≈ 0.242 µM)
MIC (ATCC29213, strain E5-1046085): 8 µg/mL (≈ 15.5 µM)
MIC (ATCC29213, strain E5-1046096): 0.5 µg/mL (≈ 0.968 µM)
MIC (ATCC29213, strain E5-1046296): 0.125 µg/mL (≈ 0.242 µM)
MIC (ATCC29213, strain E5-1046297): 0.125 µg/mL (≈ 0.242 µM)
MIC (ATCC29213, strain E5-1046298): 0.125 µg/mL (≈ 0.242 µM)
MIC (ATCC29213, strain E5-1046723): 0.5 µg/mL (≈ 0.968 µM)
MIC (ATCC29213, strain E5-1047585): 0.25 µg/mL (≈ 0.484 µM)
MIC (ATCC29213, strain E5-1047606): 8 µg/mL (≈ 15.5 µM)
MIC (ATCC29213, strain E5-1047924): 0.25 µg/mL (≈ 0.484 µM)
MIC (ATCC29213, strain E5-1048204): 0.25 µg/mL (≈ 0.484 µM)
MIC (ATCC29213, strain E5-1048428): 0.5 µg/mL (≈ 0.968 µM)
MIC (ATCC29213, strain E5-1048654): 0.5 µg/mL (≈ 0.968 µM)
MIC (ATCC29213, strain E5-1048670): 0.5 µg/mL (≈ 0.968 µM)
MIC (ATCC29213, strain EEFIC 01): 4 µg/mL (≈ 7.74 µM)
MIC (ATCC29213, strain EEFIC 02): 4 µg/mL (≈ 7.74 µM)
MIC (ATCC29213, strain K000772): > 16 µg/mL
MIC (ATCC29213, strain K000796): 8 µg/mL (≈ 15.5 µM)
MIC (ATCC29213, strain K000863): 1 µg/mL (≈ 1.94 µM)
MIC (ATCC29213, strain K000864): 0.25 µg/mL (≈ 0.484 µM)
MIC (ATCC29213, strain K000866): 8 µg/mL (≈ 15.5 µM)
MIC (ATCC29213, strain K115498): 0.125 µg/mL (≈ 0.242 µM)
MIC (ATCC29213, strain K115688): 0.125 µg/mL (≈ 0.242 µM)
MIC (ATCC29213, strain K115689): 0.125 µg/mL (≈ 0.242 µM)
MIC (ATCC29213, strain R000019): 0.125 µg/mL (≈ 0.242 µM)
MIC (ATCC29213, strain R000020): 0.125 µg/mL (≈ 0.242 µM)
MIC (ATCC29213, strain R000024): 16 µg/mL (≈ 31 µM)
MIC (ATCC29213, strain U115579): 0.25 µg/mL (≈ 0.484 µM)
MIC (ATCC 29213 / MRSA, strain MRSA 01): 0.125 µg/mL (≈ 0.242 µM)
MIC (ATCC 29213 / MRSA, strain MRSA 02): 0.5 µg/mL (≈ 0.968 µM)
MIC (ATCC 29213 / MRSA, strain MRSA 03): 16 µg/mL (≈ 31 µM)
MIC (ATCC 29213 / MRSA, strain MRSA 04): 0.25 µg/mL (≈ 0.484 µM)
MIC (ATCC 29213 / MRSA, strain MRSA 05): 0.125 µg/mL (≈ 0.242 µM)
MIC (ATCC 29213 / MRSA, strain MRSA 06): 0.125 µg/mL (≈ 0.242 µM)
MIC (ATCC 29213 / MRSA, strain MRSA 07): 0.25 µg/mL (≈ 0.484 µM)
MIC (ATCC 29213 / MRSA, strain MRSA 08): 0.125 µg/mL (≈ 0.242 µM)
MIC (ATCC 29213 / MRSA, strain MRSA 09): 0.25 µg/mL (≈ 0.484 µM)
MIC (ATCC 29213 / MRSA, strain MRSA 10): 1 µg/mL (≈ 1.94 µM)
MIC (ATCC 29213 / MRSA, strain MRSA 11): 1 µg/mL (≈ 1.94 µM)
MIC (ATCC 29213 / MRSA, strain MRSA 12): 4 µg/mL (≈ 7.74 µM)
MIC (ATCC 29213 / MRSA, strain MRSA 13): 4 µg/mL (≈ 7.74 µM)
MIC (ATCC 29213 / MRSA, strain MRSA 14): > 16 µg/mL

— patent US11331327B2, “Antibacterial use of halogenated salicylanilides” (UNION therapeutics A/S, priority 2014, dated 2022)
